Laboratory results from article PMC10725991, “Kaempferol is a novel antiviral agent against channel catfish virus infection through blocking viral attachment and penetration in vitro” (Frontiers in Veterinary Science, 2023).

How the values were obtained:
Type in all cases: cell-based, Channel catfish virus (CCV, Ictalurid herpesvirus 1)
[1] = system: CCV-induced CPE in CCO cells; assay: CPE reduction assay
Description: (§1) To test the anti-CCV effect of tested compounds in the preliminary screening, CCO cells were seeded in 24-well plates and cultured to reach approximately 90% confluence in each well at 28°C. Subsequently, the cells were infected with the CCV at 10^3 TCID50/ml at 28°C for 1 h. After that, the cell culture medium was replaced using an isopycnic DMEM medium containing the maximum safe concentration of indicated compounds. CCV-infected cells treated with DMSO served as a negative control, whereas CCV-infected cells treated with acyclovir (2.5 μg/mL) served as a positive control ([33]). After 36 h treatment, cell lysates were collected to test the CCV gene expression by the RT-qPCR, and the percentage inhibition of CCV infection by individual compound was calculated. According to the percentage inhibition results, we further detected the antiviral activity of kaempferol at maximum safe concentration by viral cytopathic effects (CPE) and western blot analysis.
For analyzing the CPE reduction of viral infected CCO cells by kaempferol, the CCO cells were seeded in 24-well plates and cultured overnight at 28°C before infection. Then, the monolayer cells were infected with CCV at 10^3 TCID50/ml for 1 h. Subsequently, the infected cells were treated with kaempferol at different concentrations (2.5, 5, 7.5, 10, 12.5, and 15 μg/mL), respectively. […]

CCV in CCO cells = assay: Time-of-drug-addition assay, RT-qPCR
Description: The CCO cells seeded in 24-well plates were infected with CCV under five different treatment conditions: (i) Control: CCO cells cultured in the maintenance DMEM media were infected by CCV for 1 h. (ii) Pre-treatment: CCO cells were pre-treated with 15 μg/mL of kaempferol for 2 h before CCV infection. (iii) Virus treatment: CCV was pre-incubated with kaempferol at 37°C for 2 h before being added to CCO cells. (iv) Virus and kaempferol co-treatment: CCO cells were treated in media containing both kaempferol and CCV at 28°C for 1 h. (v) Post-treatment: CCO cells were incubated with CCV at 28°C for 1 h. After that, kaempferol (15 μg/mL) was supplemented at 1, 2, 4, 8, 12, and 24 h post-infection. In all treatment conditions, the unabsorbed CCV was washed off twice by PBS after 1 h of adsortion. The samples were collected to test the CCV gene expression by the RT-qPCR at 24 h and 36 h after the corresponding treatments.
(§2) For RT-qPCR, the total RNA was isolated from CCV-infected cells using RnaExTM (Trizol)^a reagent (GENERAY, China), and reversed transcribed applying a HiScript III RT SuperMix with gDNA wiper (Vazyme, China) following the manufacturer’s instructions. Quantitative PCR was performed with a LightCycler 96 Real-Time PCR Detection System (Roche, USA) using ChamQ Universal SYBR qPCR Master Mix (Vazyme, China) with the following cycle conditions: 95°C for 30 s, followed by 40 cycles of 95°C for 10 s and 60°C for 30 s. To assess the specificity of each amplicon, melt curve analysis was also performed at the end of each thermal profile. The primers used for PCR are listed in Supplementary Table S2. Each individual sample was run in triplicate wells. Fold changes of the selected gene vs 18 s (internal reference) were calculated by the 2^−△△Ct method.
Figure 5 Time of drug-addition assay of kaempferol in CCV inhibition. (A) The schematic diagram of the experimental settings. The CCO cells were infected with CCV for 1 h followed by the indicated kaempferol treatments. Cell lysates at indicated time post-infection were subjected to RT-qPCR. (B,C) The relative expression levels of the CCV ORF 39 and ORF 59 genes with cell-treatment, virus-treatment and co-treatment at 24 h and 36 h post-infection. (D) The relative expression levels of the CCV ORF 39 and ORF 59 genes with post-treatment at 36 h post-infection. The selected gene level was normalized to 18 s (internal reference) using the 2^− ΔΔCT method. Data represent mean ± SD. The p value was determined by *p < 0.05, **p < 0.01.

[2] = system: CCV (strain VR-665) in CCO cells; assay: Antiviral activity screening assay, CCV gene expression by RT-qPCR; settings: maximum safe concentration, added 1 h after CCV infection, 36 h
Description: as §1, with “After 36 h treatment, cell lysates were collected to test the CCV gene expression by the RT-qPCR, and the percentage inhibition of CCV infection by individual compound was calculated.” left out
as §2, with “To assess the specificity of each amplicon, melt curve analysis was also performed at the end of each thermal profile. The primers used for PCR are listed in Supplementary Table S2. Each individual sample was run in triplicate wells.” left out, “method. […]” for “method.”

O=c1c(O)c(-c2ccc(O)cc2)oc2cc(O)cc(O)c12 [Kaempferol]
CCV-induced CPE ([1]; kaempferol 10–15 μg/mL, until 36 h): no obvious CPE | CPE induced by CCV infection ([1]; maximum safe concentration (47.53 μg/mL), 36 h post-infection): significantly reduced CPE | intracellular CCV mRNA level, pre-treatment of cells (CCV in CCO cells; 15 μg/mL for 2 h before CCV infection, 24 h post CCV infection): effectively decreased | intracellular CCV mRNA level, post-treatment (CCV in CCO cells; 15 μg/mL kaempferol supplemented 1-24 h post-infection, read at 36 h): significantly reduced | viral ORF 39 and ORF 59 mRNA levels, co-treatment (CCV in CCO cells; 15 μg/mL kaempferol with CCV at 28°C for 1 h): failed to decrease | decrease of viral mRNA level, kaempferol supplemented at 24 h post-infection (CCV in CCO cells; 15 μg/mL, post-treatment, read at 36 h post-infection): approximately 40% | intracellular CCV mRNA level, virus-treatment (CCV in CCO cells; CCV pre-incubated with kaempferol 2 h before addition to cells): significantly reduced | inhibitory rate of CCV ORF 39 and 59 genes [2]: 99.9%
